Measured values: patent US9198886B2, “Use of 2,5-dihydroxybenzene for the treatment of ocular diseases” (priority 2006, dated 2015)

Key:
[1] = tested on: experimentally induced asthma; test: OVA-induced asthma in mice (methacholine Penh, BAL cell count); format: in vivo, Balb/c mice
Method: Effect of potassium 2,5-diacetoxybenzene sulfonate (DABS) on bronchoconstriction in asthmatic mice treated with methacholine. All the mice were exposed to nebulized methacholine (MC; 5 and 20 mg/ml). Bronchoconstriction was determined as the enhanced pause. (Penh), calculated as described in the corresponding example (example 13). As control, the background and the exposure to nebulized saline (0.9% NaCl) are shown. *p<0.05 vs. saline.
Effect of potassium 2,5-diacetoxybenzene sulfonate (DABS) on the inflammatory cell count in the bronchoalveolar lavage (BAL) in asthmatic mice. The data are expressed as mean±SEM of the total number of detected cells in the BAL of the right lung of each animal. *p<0.05, ***p<0.001 vs. group treated with vehicle.
6-9 week old Balb/c mice were used. The ovoalbumin (OVA)/aluminum complex was obtained after dissolving OVA (500 μg/mL) in PBS, and mixing it with an equal volume of 10% aluminum potassium sulfate at pH 6.5 for 1 hour. After centrifuging the pellet (750×g for 5 minutes) the OVA/aluminum pellet was resuspended in distilled water. On day 0, the mice were injected intraperitoneally injected with 100 μg of OVA/aluminum. Eight days later, the mice were anesthetized and exposed to 250 μg of OVA. Later, they were administered 125 μg of OVA on days 15, 18 and 21. […].
The following treatments were administered to the animals: (i.p.) vehicle from day 2, potassium 2,5-diacetoxybencene sulfonate (DABS; 100 mg/kg/day, i.p.) from day 2, DABS (100 mg/kg/day, i.p.) from day 8 and Combivent (20 μg/200 μg in aerosol) on days 20, 21 and 22, the latter as a reference treatment.
In order to evaluate the pulmonary function, the response to methacholine in conscious mice was determined, 24 hours after the last exposure to OVA. The mice were exposed to increasing methacholine concentrations (5 and 20 mg/mL) in the form of aerosol using an ultrasonic nebulizer during 2 minutes. The degree of bronchoconstriction was expressed as the enhanced pause (Penh) which correlates to the mouse air resistance, impedance and pressure within the pleura. The Penh was calculated using the formula Penh=[(Te/Rt−1)×(PEF/PIF)], where Te is expiratory time, Rt is relaxation time, PEF is peak expiratory flow and PIF is peak inspiratory flow×0.67 coefficient.
After measuring airway hyperreactivity, the mice were sacrificed and the bronchoalveolar lavage (BAL) of the right lung was collected. The total number of cells in the BAL fluid was determined.

[2] = tested on: skeletal muscle lesions; test: Oral treatment of patients with skeletal muscle and tendon lesions (MRI, function); format: in vivo, human
Method: The capacity of a 2,5-dihydroxybenzene derivative, the 2,5-dihydroxybenzene sulfonic acid (DHBS) to effectively treat skeletal muscle lesions is shown herein. The efficacy is evident, not only in the images of conventional diagnosis that show the recovery of the muscular damage, but also there is a clear functional recovery of the affected limb.
The first patient's left quadriceps was broken by practicing sports. […] At that moment, the patient starts a daily oral treatment with 500 mg of 2,5-dihydroxybenzene sulfonic acid (DHBS) for two weeks. […] An observation that may be applied to the other cases that support this example.
Other patient has an hematoma and muscular breaking of the brachial biceps, as shown in the magnetic resonance image (MRI) of FIG. 12A. The hematoma can be appreciated externally (FIG. 13A) and the lesion, produced by professional practice (dancing) the day before the consultation, limits the elbow flexion (FIG. 13B) and extension (FIG. 13C).

[3] = tested on: angiogenesis induced by Helicobacter pylori in the human gastric mucosa; test: Gastric mucosa biopsy in a patient chronically infected with Helicobacter pylori; format: in vivo; settings: 500 mg/day oral, one week
Method: FIG. 5. Helicobacter pylori • A) Hematoxylin-eosin staining of the gastric mucosa of a sample obtained from a patient infected with Helicobacter pylori before treatment. The arrows and the asterisk indicate the formation of neovessels in the mucosa protruding the gastric lumen through the lost epithelial layer. • B) Hematoxylin-eosin staining of the gastric mucosa of a sample obtained from the same patient infected with Helicobacter pylori after administering 500 mg of 2,5-dihydroxybenzenesulfonate (DHBS) daily for a week.
A biopsy of the gastric mucosa was performed in a patient chronically infected with Helicobacter pylori before the oral treatment with 2,5-dihydroxybenzene sulfonic acid (Dobesilate) (500 mg/day). After a week of treatment, another biopsy was performed in the patient. Both biopsies were evaluated using hematoxylin-eosin staining. […] Microscopically, the arrows and the asterisk indicate the formation of neovessels in the mucosa protruding the gastric lumen through the lost epithelial layer. […] This example illustrates that the use of DHBS is beneficial in the treatment of gastritis and angiogenesis caused by the infection with Helicobacter pylori.

[4] = tested on: infantile hemangioma; test: Topical cream in a child with infantile hemangioma; format: in vivo, human; settings: cream 2.5%, topical twice a day, 1, 2 and 3 months, one child
Excerpt: Photographs of a child showing the effects of the topical treatment with a cream comprising 2,5-dihydroxybenzenesulfonic (DHBS) (2.5%) in a baby suffering infantile hemangioma.
The cream comprising 2,5-dihydroxybenzene sulfonic (2.5%) was topically applied twice a day for 3 months on the face of a child suffering from infantile hemangioma.

[5] = tested on: pterygium; test: Topical solution in a patient with unilateral pterygium; format: in vivo, human; settings: 2.5% solution, one drop four times per day, two weeks
Excerpt: FIG. 3. […] The treatment consists of the application of 4 drops of said solution daily, for two weeks.
The solution was applied topically to a patient suffering from unilateral pterygium, as one drop four times per day.

[6] = patient with brachial biceps breaking, 1500 mg/day p.o., 20 days
[7] = patient with broken left quadriceps, 500 mg/day p.o., two weeks

Structure (SMILES)	methacholine induced bronchoconstriction (Penh) ([1]; 100 mg/kg/day i.p. from day 2)	methacholine induced bronchoconstriction (Penh) ([1]; 100 mg/kg/day i.p. from day 8)	presence of BAL cells in asthmatic mice ([1]; 100 mg/kg/day i.p., vs vehicle)	BAL cell reduction compared with Combivent ([1]; DABS 100 mg/kg/day i.p., Combivent aerosol days 20-22)	increase of the Penh after exposure to MC vs saline ([1]; MC 5 and 20 mg/ml, Combivent 20 μg/200 μg aerosol days 20-22 or DABS 100 mg/kg/day i.p.)	MRI tendon lesion ([2]; patient with Achilles tendon breaking, 1500 mg/day p.o., two months)	MRI size of lesion and hematoma [2, 6]	elbow function [2, 6]	MRI of quadriceps lesion and hematoma [2, 7]	functional recovery of the leg [2, 7]	time to functional recovery and resolution vs conventional treatments (antiinflammatories) [2, 7]	MRI muscular lesion ([2]; patient with semitendinous muscle lesion, 1500 mg/day p.o., 11 days)	angiogenic activity in gastric mucosa [3]	epithelial membrane of gastric mucosa [3]	gastric mucosa symptoms of congestion and erythema [3]	appearance of the hemangioma lesion [4]	pterygium appearance [5]
CC(=O)Oc1ccc(OC(C)=O)c(S(=O)(=O)[O-])c1.[K+] [DABS, potassium 2,5-diacetoxybenzene sulfonate]	completely prevented	completely prevented	significantly reduced	even more than the treatment with Combivent	do not show a significant increase of the Penh	–	–	–	–	–	–	–	–	–	–	–	–
O=S(=O)(O)c1cc(O)ccc1O [DHBS, 2,5-dihydroxybenzene sulfonic acid]	–	–	–	–	–	marked reduction of said lesion	markedly reduces the size of the lesion and of the hematoma	recovers the functionality of the elbow flexion and extension	the hematoma can no longer be observed	able to extend the left leg almost completely	shorter period than the one required in the case of conventional treatments	reduced the muscular lesion	less angiogenic activity	apparently normal	symptoms of congestion and erythema disappear	substantial recovery of the lesion	partial reversal of the pterygium
